Values quoted from earlier work as cited in patent publication US20180140566A1, “ACETAMINOPHEN AND TRAMADOL COMPOUND ORAL SOLUTION” (BORA PHARMACEUTICALS CO., LTD., priority 2016, published 2018).

SMILES	solubility in acetone (acetone, in words)	solubility in water (water, in words)	amount of acetaminophen dissolved per milliliter of water (per milliliter (mL) of water, at 25 degrees Celsius)
COc1cccc(C2(O)CCCCC2CN(C)C)c1 (stereo not drawn) [Tramadol, tramadol]	hardly dissolves	makes great aqueous solutions	
CC(=O)Nc1ccc(O)cc1 [acetaminophen]			no more than 14.00 mg
